The values that follow come from patent EP1551873B1, “AGONISTS AND ANTAGONISTS OF THE HUMAN ODORANT RECEPTOR OR17-4 AND USES THEREOF” (Symrise AG, priority 2002, dated 2004).

Where only a bound is given, the exact number is not on record here.

The assay has as its system humane Spermien. In words: Sperm orientation towards capillary tip (CAVMA, circular statistics, Rayleigh test). The format is cell-based, human. Particulars: Bourgeonal 10^-8 M and higher. The text has this:
Zur Bestimmung der Chemoattraktion von Spermien und des Effekts eines Antagonisten wurde Bourgeonal allein bei 10^-7 M und in Kombination mit 10^-6, 10^-7, 10^-8 oder 10^-9 M n-Undecanal getestet. Während der Durchführung der Chemotaxis-Bioassays wurde das Spermienverhalten innerhalb eines Bereiches von 300 µm vor jeder Kapillarspitze 30 Sekunden lang auf Video aufgenommen. Die Videoaufnahme begann 10 bis 15 Minuten nach dem Experimentbeginn, um die Bildung eines chemischen Gradienten zu ermöglichen. Die Spermien-Orientierung zum Gradienten hin wurde unter Verwendung von CAVMA quantifiziert. Durch Anwendung zirkulärer Statistiken wurde die mittlere Vektorlänge (r) und die Schwimmrichtung berechnet, um das Bewegungsmuster der untersuchten Spermien zu beschreiben. Der Winkel der Spermienorientierung wurde in Bezug auf einen Ursprung angegeben, der als die kürzeste Verbindung zwischen jeder individuellen Zelle und der Kapillarenspitze (0°) definiert wurde. Um zu bestimmen, ob die Zellbewegung innerhalb des chemischen Gradienten nicht-zufällig war, wurde jede mittlere Ausrichtung mit einer uniformen zirkulären Verteilung unter Verwendung eines unimodalen Rayleigh-Tests (J. H. Zar, Biostatistical Analysis (1984)) verglichen.

As to `CC(C)(C)c1ccc(CCC=O)cc1` [Bourgeonal], the “Zellbewegungsmuster in der Nähe der Kapillarspitzen” value is on record as “signifikant nicht-zufällig”. The “mittlere Vektorlänge (r), Rayleigh-Test” value (all comparisons) was ≥ 0,45.
